Experimental data reported in patent publication US12162863B2, “Modulators of stimulator of interferon genes (STING)” (RYVU THERAPEUTICS S.A., priority 2018, dated 2024).

Tests used:
[1] = tested on: interferon regulatory factor (IRF) pathway in THP-1 dual cells; test: THP-1 Dual Reporter Assay, IRF pathway (luciferase reporter); type: cell-based; details: Homo sapiens, THP1-Dual, 18 h of stimulation, luminescence
Method: (§1) THP-1 Dual Reporter Assay
(§2) Compounds of the present invention were tested for their activity using THP-1 dual cells (Invivogen, cat no. thpd-nfis) allowing for simultaneous study of NF-κB pathway and the interferon regulatory factor (IRF) pathway. THP-1 dual cells contain luciferase reporter gene under the control of an ISG54 (interferon-stimulated gene) minimal promoter in conjunction with five interferon-stimulated response elements and a secreted embryonic alkaline phosphatase reporter gene under the control an IFN (interferon)-β minimal promoter fused to five copies of the NF-κB consensus transcriptional response element with three copies of the c-Rel binding site. Following 18 h of stimulation with STING agonist, medium was collected and transferred onto fresh cell culture plate. To verify activity of the IRF pathway, luminescence activity was measured with standard laboratory plate reader immediately after addition 10 μl of the medium to 50 μl of luminescence reagent (Invivogen, cat. No. rep-qlc2). To verify activity of NF-κB pathway, 20 μl of the medium was mixed with 80 μl of a detection medium (Invivogen, cat. No. rep-qb2) and incubated for 2 hours at 37° C. in a humidified atmosphere containing 5% CO2. Next, absorbance at 630 nm was recorded using standard laboratory plate reader.

human STING = human STING (Homo sapiens, UniProt Q86WV6); test: Fluorescence Thermal Shift assay; type: binding; details: 50 μM compound; STING 0.1 mg/ml; 20 minutes preincubation; read-out: [hSTING] FTS, ΔTm [° C.] for 50 μM
Chain of human STING (Q86WV6 whole entry H232R): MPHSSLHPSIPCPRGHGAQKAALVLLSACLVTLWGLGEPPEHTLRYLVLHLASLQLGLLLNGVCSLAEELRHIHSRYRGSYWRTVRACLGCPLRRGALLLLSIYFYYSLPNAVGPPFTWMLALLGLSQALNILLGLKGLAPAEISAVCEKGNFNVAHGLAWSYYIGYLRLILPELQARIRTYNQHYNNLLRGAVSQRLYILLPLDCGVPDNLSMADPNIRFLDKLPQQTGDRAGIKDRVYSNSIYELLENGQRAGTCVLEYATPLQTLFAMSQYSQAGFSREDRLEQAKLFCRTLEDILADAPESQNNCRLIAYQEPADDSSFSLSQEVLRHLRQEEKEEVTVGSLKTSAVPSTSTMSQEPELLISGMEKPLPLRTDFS
Method: Fluorescence Thermal Shift Assay Compounds of the present invention were tested for binding to human STING in Fluorescence Thermal Shift assay. STING was preincubated with the compounds for 20 minutes in 50 mM Hepes, 150 mM NaCl, pH 7.5 in 16 μl volume, following by adding 4 μl of SyproOrange dye dilution (ThermoFisher, cat no. S-6651). Final STING concentration was 0.1 mg/ml. Thermal unfolding was performed in Real-Time PCR QuantStudio 6 Flex System (Applied Biosystems), from 25 to 99° C., with continuous ramp mode and ramp rate 0.033° C./s. The data were analyzed using Protein Thermal Shift Software (ThermoFisher). […] For example, ΔTm [° C.] of FTS assay for following examples are: […]

[2] = tested on: NF-κB pathway in THP-1 dual cells; test: THP-1 Dual Reporter Assay, NF-κB pathway (SEAP reporter); type: cell-based; details: Homo sapiens, THP1-Dual, 18 h of stimulation, absorbance at 630 nm, read-out: THP1 Dual EC50 (μM) NFkB
Method: as §1, §2

Cc1oc2cc(Br)ccc2c(=O)c1CN(CCCn1ccnc1)Cc1ccncc1 [Example 48, 7-bromo-3-({[3-(1H-imidazol-1-yl)propyl][(pyridin-4-yl)methyl]amino}methyl)-2-methyl-4H-chromen-4-one]
EC50 [1]: ≤ 10 µM
ΔTm at 50 µM (human STING): > 2.5 °C
EC50 [2]: ≤ 10 µM

CN1CCN(c2cc3occ(CN(CCCn4ccnc4)Cc4ccncc4)c(=O)c3cc2F)CC1 [Example 49, 6-fluoro-3-({[3-(1H-imidazol-1-yl)propyl][(pyridin-4-yl)methyl]amino}methyl)-7-(4-methylpiperazin-1-yl)-4H-chromen-4-one]
EC50 [1]: ≤ 10 µM
ΔTm at 50 µM (human STING): > 2.5 °C
EC50 [2]: ≤ 10 µM

O=c1c(CN(CCCn2cnc3ccccc32)Cc2ccncc2)coc2c1ccc1ccccc12 [Example 50, 3-({[3-(1H-1,3-benzodiazol-1-yl)propyl][(pyridin-4-yl)methyl]amino}methyl)-4H-benzo[h]chromen-4-one]
EC50 [1]: ≤ 10 µM
ΔTm at 50 µM (human STING): > 2.5 °C
EC50 [2]: ≤ 10 µM

COc1cc(CN(CCCn2ccnc2)Cc2coc3c(C)c(C)ccc3c2=O)ccn1 [Example 51, 3-({[3-(1H-imidazol-1-yl)propyl][(2-methoxypyridin-4-yl)methyl]amino}methyl)-7,8-dimethyl-4H-chromen-4-one]
EC50 [1]: ≤ 10 µM
ΔTm at 50 µM (human STING): > 2.5 °C
EC50 [2]: ≤ 10 µM

COc1ccc2ccc3c(=O)c(CN(CCCc4cccnc4)Cc4ccncc4)coc3c2c1 [Example 52, 9-methoxy-3-({[3-(pyridin-3-yl)propyl][(pyridin-4-yl)methyl]amino}methyl)-4H-benzo[h]chromen-4-one]
EC50 [1]: ≤ 10 µM
ΔTm at 50 µM (human STING): > 2.5 °C
EC50 [2]: ≤ 10 µM

COc1cc(CN(CCCn2cnc3ccccc32)Cc2coc3c(ccc4ccccc43)c2=O)ccn1 [Example 53, 3-({[3-(1H-1,3-benzodiazol-1-yl)propyl][(2-methoxypyridin-4-yl)methyl]amino}methyl)-4H-benzo[h]chromen-4-one]
EC50 [1]: ≤ 10 µM
ΔTm at 50 µM (human STING): > 2.5 °C
EC50 [2]: ≤ 10 µM

O=c1c(CN(CCCc2cccnc2)Cc2ccncc2)coc2c1cc(F)c1ccccc12 [Example 54, 6-fluoro-3-({[3-(pyridin-3-yl)propyl][(pyridin-4-yl)methyl]amino}methyl)-4H benzo[h]chromen-4-one]
EC50 [1]: ≤ 10 µM
ΔTm at 50 µM (human STING): > 2.5 °C
EC50 [2]: ≤ 10 µM

Cc1ccc2c(=O)c(CN(CCCc3cccnc3)Cc3ccncc3)c(C)oc2c1C [Example 55, 2,7,8-trimethyl-3-({[3-(pyridin-3-yl)propyl][(pyridin-4-yl)methyl]amino}methyl)-4H-chromen-4-one]
EC50 [1]: ≤ 10 µM
ΔTm at 50 µM (human STING): > 2.5 °C
EC50 [2]: ≤ 10 µM

COc1ccc(-c2ccc3c(=O)c(CN(CCCn4ccnc4)Cc4ccncc4)c(C)oc3c2)cc1 [Example 56, 3-({[3-(1H-imidazol-1-yl)propyl][(pyridin-4-yl)methyl]amino}methyl)-7-(4-methoxyphenyl)-2-methyl-4H-chromen-4-one]
EC50 [1]: ≤ 10 µM
ΔTm at 50 µM (human STING): > 2.5 °C
EC50 [2]: ≤ 10 µM

COc1cccc(-c2cc3occ(CN(CCCn4ccnc4)Cc4ccncc4)c(=O)c3cc2F)c1 [Example 57, 6-fluoro-3-({[3-(1H-imidazol-1-yl)propyl][(pyridin-4-yl)methyl]amino}methyl)-7-(3-methoxyphenyl)-4H-chromen-4-one]
EC50 [1]: ≥ 20 µM
ΔTm at 50 µM (human STING): > 2.5 °C
EC50 [2]: ≥ 20 µM

CN1CCN(c2cc3occ(CN(CCCc4cccnc4)Cc4ccncc4)c(=O)c3cc2F)CC1 [Example 58, 6-fluoro-7-(4-methylpiperazin-1-yl)-3-({[3-(pyridin-3-yl)propyl](pyridin-4-ylmethyl)amino}methyl)-4H-chromen-4-one]
EC50 [1]: ≤ 10 µM
ΔTm at 50 µM (human STING): > 2.5 °C
EC50 [2]: ≤ 10 µM

O=c1c(CN(CCCn2ccccc2=O)Cc2ccncc2)coc2c1ccc1ccccc12 [Example 59, 1-{3-[({4-oxo-4H-benzo[h]chromen-3-yl}methyl)[(pyridin-4-yl)methyl]amino]propyl}-1,2-dihydropyridin-2-one]
EC50 [1]: ≤ 10 µM
ΔTm at 50 µM (human STING): < 2.5 °C
EC50 [2]: ≤ 10 µM

CN(C)c1ccc(CCCN(Cc2ccncc2)Cc2coc3c(ccc4ccccc43)c2=O)cn1 [Example 60, 3-[({3-[6-(dimethylamino)pyridin-3-yl]propyl}[(pyridin-4-yl)methyl]amino)methyl]-4H-benzo[h]chromen-4-one]
EC50 [1]: ≥ 20 µM
ΔTm at 50 µM (human STING): < 2.5 °C
EC50 [2]: ≥ 20 µM

O=c1c(CN(CCCc2cncc3ccccc23)Cc2ccncc2)coc2c1ccc1ccccc12 [Example 61, 3-({[3-(isoquinolin-4-yl)propyl][(pyridin-4-yl)methyl]amino}methyl)-4H-benzo[h]chromen-4-one]
EC50 [1]: ≥ 20 µM
ΔTm at 50 µM (human STING): < 2.5 °C
EC50 [2]: ≥ 20 µM

COc1ccc2ccc3c(=O)c(CN(CCCn4cnc5ccccc54)Cc4ccncc4)coc3c2c1 [Example 62, 3-({[3-(1H-1,3-benzodiazol-1-yl)propyl][(pyridin-4-yl)methyl]amino}methyl)-9-methoxy-4H-benzo[h]chromen-4-one]
EC50 [1]: ≤ 10 µM
ΔTm at 50 µM (human STING): > 2.5 °C
EC50 [2]: ≤ 10 µM

Cc1oc2cc(Br)c(F)cc2c(=O)c1CN(CCCc1cccnc1)Cc1ccncc1 [Example 63, 7-bromo-6-fluoro-2-methyl-3-({[3-(pyridin-3-yl)propyl][(pyridin-4-yl)methyl]amino}methyl)-4H-chromen-4-one]
EC50 [1]: ≤ 10 µM
ΔTm at 50 µM (human STING): > 2.5 °C
EC50 [2]: ≤ 10 µM

Cc1oc2cc(Br)ccc2c(=O)c1CN(CCCc1cccnc1)Cc1ccncc1 [Example 64, 7-bromo-2-methyl-3-({[3-(pyridin-3-yl)propyl](pyridin-4-ylmethyl)amino}methyl)-4H-chromen-4-one]
EC50 [1]: ≤ 10 µM
ΔTm at 50 µM (human STING): > 2.5 °C
EC50 [2]: ≤ 10 µM

Cc1oc2cc(N3CCN(C)CC3)c(F)cc2c(=O)c1CN(CCCc1cccnc1)Cc1ccncc1 [Example 65, 6-fluoro-2-methyl-7-(4-methylpiperazin-1-yl)-3-({[3-(pyridin-3-yl)propyl][(pyridin-4-yl)methyl]amino}methyl)-4-chromen-4-one]
EC50 [1]: ≤ 10 µM
ΔTm at 50 µM (human STING): > 2.5 °C
EC50 [2]: ≤ 10 µM

COc1ccc(CCCN(Cc2ccncc2)Cc2c(C)oc3c(C)c(C)ccc3c2=O)cn1 [Example 66, 3-({[3-(6-methoxypyridin-3-yl)propyl](pyridin-4-ylmethyl)amino}methyl)-2,7,8-trimethyl-4H-chromen-4-one]
EC50 [1]: ≤ 10 µM
ΔTm at 50 µM (human STING): < 2.5 °C
EC50 [2]: ≤ 10 µM

Cc1oc2c(ccc3ccccc32)c(=O)c1CN(CCCn1ccnc1)Cc1ccncc1 [Example 67, 3-({[3-(1H-imidazol-1-yl)propyl][(pyridin-4-yl)methyl]amino}methyl)-2-methyl-4H-benzo[h]chromen-4-one]
EC50 [1]: ≤ 10 µM
ΔTm at 50 µM (human STING): > 2.5 °C
EC50 [2]: ≤ 10 µM

O=c1c(CN(CCCn2cnc3ncccc32)Cc2ccncc2)coc2c1ccc1ccccc12 [Example 68, 3-{[(3-{1H-imidazo[4,5-b]pyridin-1-yl}propyl)(pyridin-4-ylmethyl)amino]methyl}-4H-benzo[h]chromen-4-one]
EC50 [1]: ≤ 10 µM
ΔTm at 50 µM (human STING): > 2.5 °C
EC50 [2]: ≤ 10 µM
